# Results published in the supplement of paper PMC11208160.
# Assay: recombinant barcode read abundance after kanamycin selection (control-corrected) (log10(CPM+1)); higher = more efficient recombination; sequences stand for … in AGTGCAGAGAAAATCGGCCAGTTTTCTCTGCCTGCAGTCCGCATGCCGT…AGATTTATGCAGCGGACTGCCTTTCTCCCAAAGTGATAAACCGGACAGTATCATGGACCGGTTTTCCCGGTAATCCGTATTTGCAAGGTTGGTTTCACT; site = the 11-nt target
# Procedure, shortened: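 Targets were screened in pooled form in E. coli against IS621 bridge RNA target-binding loops. Recombination efficiency is based on barcode counts at recombinant junctions in counts per million, averaged and corrected for the control. Numbers are shown as log10(CPM+1), with duplicate plates on chloramphenicol/ampicillin LB agar (control) or chloramphenicol/ampicillin/kanamycin with 0.1 mM IPTG.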
# 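Further: IS621 recombinase and bridge RNA in Escherichia coli cells.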
row,Sequence,recombinant barcode read abundance (log10)
1,GATTGGACTTGGGTTCTAACCTGTTGCTT (site GATTGGACTAA),0.661
2,GATTGGACTTGGGTTCTAACCTGTTGCTT (site TATTGGACTAA),0.128
3,GCAAAGCCTTGGGTTCTAACCTGTTGCCT (site GCAAAGCCTAG),1.18
4,GCAAAGCCTTGGGTTCTAACCTGTTGCCT (site GCACAGACTAG),0.195
5,GCAAGGACTTGGGTTCTAACCTGTTGCAG (site GCAAGGACTCT),2.6
6,GCAAGGACTTGGGTTCTAACCTGTTGCAG (site GCACGGACTCT),0.165
7,GCAAGGACTTGGGTTCTAACCTGTTGCAG (site GCAGGGACTCT),0.76
8,GCAAGGACTTGGGTTCTAACCTGTTGCAG (site GCATGGACTCT),0.587
9,GCAAGGCCTTGGGTTCTAACCTGTTGCCT (site ACAAGGCCTAG),0.0435
10,GCAAGGCCTTGGGTTCTAACCTGTTGCCT (site CCAAGGCCTAG),0.721
11,GCAAGGCCTTGGGTTCTAACCTGTTGCCT (site GCAAGGCCTAG),0.418
12,GCAAGGCCTTGGGTTCTAACCTGTTGCCT (site TCAAGGCCTAG),0.0143
13,GCAATTACTTGGGTTCTAACCTGTTGCTT (site GCAATTACTAA),0.0238
14,GCAATTACTTGGGTTCTAACCTGTTGCTT (site TGGGGCCCTCG),0.078
15,GCACCACCTTGGGTTCTAACCTGTTGCCT (site GCACAACCTAG),0.0145
16,GCACCACCTTGGGTTCTAACCTGTTGCCT (site GCACCACCTAG),1.06
17,GCACCACCTTGGGTTCTAACCTGTTGCCT (site GCACGACCTAG),0.178
18,GCACCACCTTGGGTTCTAACCTGTTGCCT (site GCACTACCTAG),0.127
19,GCACCGCCTTGGGTTCTAACCTGTTGCCT (site ACACCGCCTAG),0.667
20,GCACCGCCTTGGGTTCTAACCTGTTGCCT (site CCACCGCCTAG),0.0991
21,GCACCGCCTTGGGTTCTAACCTGTTGCCT (site GCACCGCCTAG),1.09
22,GCACCGCCTTGGGTTCTAACCTGTTGCCT (site TCACCGCCTAG),0.0378

row,Sequence,recombinant barcode read abundance (log10)
1,GCACGCCCTTGGGTTCTAACCTGTTGCCT (site GCACGCCCTAG),0.711
2,GCACGCCCTTGGGTTCTAACCTGTTGCCT (site TCCCGCCCTAG),0.0743
3,GCACGCCCTTGGGTTCTAACCTGTTGCTT (site GCACGCCCTAA),0.737
4,GCACGCCCTTGGGTTCTAACCTGTTGCTT (site GCGCGGCCTAA),0.181
5,GCACTCCCTTGGGTTCTAACCTGTTGCCT (site GCACTCCCTAG),0.0516
6,GCACTCCCTTGGGTTCTAACCTGTTGCCT (site GCCCTCCCTAG),0.0585
7,GCACTCCCTTGGGTTCTAACCTGTTGCCT (site GCGCTCCCTAG),0.199
8,GCACTCCCTTGGGTTCTAACCTGTTGCCT (site GCTCTCCCTAG),0.831
9,GCAGAGTCTTGGGTTCTAACCTGTTGCCT (site GAAGAGTCTAG),0.201
10,GCAGAGTCTTGGGTTCTAACCTGTTGCCT (site GCAGAGTCTAG),2.1
11,GCAGAGTCTTGGGTTCTAACCTGTTGCCT (site GGAGAGTCTAG),0.0924
12,GCAGAGTCTTGGGTTCTAACCTGTTGCCT (site GTAGAGTCTAG),1.06
13,GCAGGGACTTGGGTTCTAACCTGTTGCCT (site GAAGGGACTAG),0.56
14,GCAGGGACTTGGGTTCTAACCTGTTGCCT (site GCAGGGACTAG),1.9
15,GCAGGGACTTGGGTTCTAACCTGTTGCCT (site GGAGGGACTAG),0.313
16,GCAGGGACTTGGGTTCTAACCTGTTGCCT (site GTAGGGACTAG),1.02
17,GCAGGTACTTGGGTTCTAACCTGTTGCCT (site ACAGGTACTAG),0.508
18,GCAGGTACTTGGGTTCTAACCTGTTGCCT (site CCAGGTACTAG),0.401
19,GCAGGTACTTGGGTTCTAACCTGTTGCCT (site GCAGGTACTAG),1.17
20,GCAGGTACTTGGGTTCTAACCTGTTGCCT (site TCAGGTACTAG),0.466
21,GCAGGTGCTTGGGTTCTAACCTGTTGCTT (site ATTTCGACTCC),0.0721
22,GCAGGTGCTTGGGTTCTAACCTGTTGCTT (site GCAGGTGCTAA),1.75

row,Sequence,recombinant barcode read abundance (log10)
1,GCATACACTTGGGTTCTAACCTGTTGCCA (site GCATACACTTG),1.48
2,GCATACACTTGGGTTCTAACCTGTTGCCA (site TGCAGGGCTCC),0.0903
3,GCATCTACTTGGGTTCTAACCTGTTGCTA (site CATAACGCTAG),0.185
4,GCATCTACTTGGGTTCTAACCTGTTGCTA (site GCATCTACTTA),0.0861
5,GCCAAACCTTGGGTTCTAACCTGTTGCTA (site GCCAAACCTTA),0.0929
6,GCCAAACCTTGGGTTCTAACCTGTTGCTA (site GTCAAGCCTTA),0.176
7,GCCAGACCTTGGGTTCTAACCTGTTGCCT (site GCCAAACCTAG),0.0596
8,GCCAGACCTTGGGTTCTAACCTGTTGCCT (site GCCACACCTAG),0.0708
9,GCCAGACCTTGGGTTCTAACCTGTTGCCT (site GCCAGACCTAG),0.373
10,GCCAGACCTTGGGTTCTAACCTGTTGCCT (site GCCATACCTAG),0.112
11,GCCAGCTCTTGGGTTCTAACCTGTTGCTG (site CAATTTCCTAT),0.169
12,GCCAGCTCTTGGGTTCTAACCTGTTGCTG (site GCCAGCTCTCA),0.581
13,GCCATAACTTGGGTTCTAACCTGTTGCCT (site GCCATAACTAG),0.0347
14,GCCATAACTTGGGTTCTAACCTGTTGCCT (site GCCATCACTAG),0.0218
15,GCCATAACTTGGGTTCTAACCTGTTGCCT (site GCCATGACTAG),0.256
16,GCCATAACTTGGGTTCTAACCTGTTGCCT (site GCCATTACTAG),0.191
17,GCCCGAACTTGGGTTCTAACCTGTTGCCT (site GCACGAACTAG),0.141
18,GCCCGAACTTGGGTTCTAACCTGTTGCCT (site GCCCGAACTAG),0.998
19,GCCCGAACTTGGGTTCTAACCTGTTGCCT (site GCGCGAACTAG),0.0267
20,GCCCGAACTTGGGTTCTAACCTGTTGCCT (site GCTCGAACTAG),0.101
21,GCCCGATCTTGGGTTCTAACCTGTTGCCT (site GCCCAATCTAG),0.743
22,GCCCGATCTTGGGTTCTAACCTGTTGCCT (site GCCCCATCTAG),0.179

row,Sequence,recombinant barcode read abundance (log10)
1,GCCCGATCTTGGGTTCTAACCTGTTGCCT (site GCCCGATCTAG),1.42
2,GCCCGATCTTGGGTTCTAACCTGTTGCCT (site GCCCTATCTAG),0.0709
3,GCCCGGGCTTGGGTTCTAACCTGTTGCGG (site GCCCGGGCTCC),2.39
4,GCCCGGGCTTGGGTTCTAACCTGTTGCGG (site GGCCGGGCTCC),0.022
5,GCCCTATCTTGGGTTCTAACCTGTTGCCT (site GCCCAATCTAG),0.0981
6,GCCCTATCTTGGGTTCTAACCTGTTGCCT (site GCCCCATCTAG),0.107
7,GCCCTATCTTGGGTTCTAACCTGTTGCCT (site GCCCGATCTAG),0.0182
8,GCCCTATCTTGGGTTCTAACCTGTTGCCT (site GCCCTATCTAG),1.35
9,GCCCTGCCTTGGGTTCTAACCTGTTGCGT (site GCCCTGCCTAC),2.62
10,GCCCTGCCTTGGGTTCTAACCTGTTGCGT (site TACCTGCCTAC),0.133
11,GCCGAAACTTGGGTTCTAACCTGTTGCCT (site GCCGAAACTAG),0.0181
12,GCCGAAACTTGGGTTCTAACCTGTTGCCT (site GCCGACACTAG),0.0951
13,GCCGAAACTTGGGTTCTAACCTGTTGCCT (site GCCGAGACTAG),0.052
14,GCCGAAACTTGGGTTCTAACCTGTTGCCT (site GCCGATACTAG),0.311
15,GCCGAGCCTTGGGTTCTAACCTGTTGCCA (site GCCGAGCCTTG),0.21
16,GCCGAGCCTTGGGTTCTAACCTGTTGCCA (site TAGTGAACTGT),0.432
17,GCCGAGGCTTGGGTTCTAACCTGTTGCTG (site GCCGAGGCTCA),0.439
18,GCCGAGGCTTGGGTTCTAACCTGTTGCTG (site GTCTAGGCTCA),0.326
19,GCCGAGTCTTGGGTTCTAACCTGTTGCAC (site GCCGAGTCTAG),0.288
20,GCCGAGTCTTGGGTTCTAACCTGTTGCAC (site GCCGAGTCTGT),1.25
